# Measurements taken from PMC7946228, “Discovery of novel candidates for anti-liposarcoma therapies by medium-scale high-throughput drug screening” (PLoS ONE, 2021).
# Read-outs that look alike come from different tables or passages of the source.
# What was measured:
# [1] = system: cancer cells isolated from primary liposarcoma tumors; assay: Ex vivo cultures of patient-derived tumor cells, ATP viability 72h; assay type: cell-based, human; conditions: 1 nM to 10 μM, patients 1-3
# Description: (§1) 349 compounds from anti-cancer Selleck Chemical library were pre-aliquoted at five concentrations, increasing in 10-fold steps from 1 nM to 10 μM, in 384-well plates using an Echo Liquid Handler. Each plate also contained positive (benzethonium chloride, BzCl) and negative (DMSO only) controls. Additional drugs were added manually to the same plates at the same concentration range. Cells were seeded directly into the plates containing the drugs. After 72h viability was assessed through levels of ATP, with Cell Titer Glow assay (Promega, Wisconsin, United States) and luminescence quantified using a […]. Data from drug screens were analyzed with R version 3.4.0 (R_Core_Team, 2017) normalized to median positive (BzCl) and median negative (DMSO) controls using formula: (drug-BzCl)/(DMSO–BzCl), with total viability calculated as the area under the curve over all five drug concentrations, adjusted using qualitatively constrained quantile smoothing splines, R package ‘cobs’ version 1.3–3 [22]. The raw values of positive (BzCl) and median negative (DMSO) controls on each assay plate were aggregated and used to calculate z’-factors, as a measure of assay performance and data quality, with a z’-factor > 0.5 representing acceptable data. For two cases where the z’-factor was below 0.5, strictly standardized mean difference (SSMD) was additionally calculated, giving the population value (β) of SSMD -4 and -5, respectively, indicating good quality. Data visualization was done in R using ‘ComplexHeatmaps’ package version 1.20.0 [24]. The same assay was also used when assessing viability of non-tumor cells and tumor explants.
# Explants of tumors from patients with liposarcoma were made using Tumor Dissociation Kit and gentleMACS Dissociator (both Miltenyi Biotec, Germany) according to the manufacturer’s instructions. […]
# Next, we tested the selected candidate drugs on cancer cells isolated from primary liposarcoma tumors that were available during the study (Fig 5, bottom panel). […] Cell viability was assessed by measuring ATP after 72h. […]
# [2] = cited from earlier work
# liposarcoma cell lines [3] = assay: IncuCyte cell proliferation assay (growth reducing/arresting concentration); assay type: cell-based, human; conditions: complete growth arrest between 96 and 120h
# Description: The cellular proliferation rate was measured using the IncuCyte ZOOM live-cell imaging system (Essen Bioscience, Birmingham, UK) with the corresponding software application (version 2013BRev1). First the growth rate for each cell line was established to estimate the seeding numbers of cells corresponding to 15-30% of confluence at the start of the experiment and maximum 70% after 72h. The drug treatment was initiated approximately 18h after seeding. The proliferation rate was measured as cell confluence over time through the acquisition of photographs under phase contrast every third hour for the entire duration of the drug treatment. During the drug treatment, media were not changed, and cells were not split. The growth reducing drug concentration was defined as lowest drug concentration leading to significant decrease of cellular growth between 40 and 72h after start of treatment. To determine that concentration, plots were generated using IncuCyte software and differences in growth between 40 and 72h were calculated using least-square means with the '[…] package version 1.4.3 [25]. Growth arresting concentrations were defined as minimal drug concentration under which cell confluence between 96 and 120h increases by less than 3%. Though growth arrest occurred much earlier, these time points ensured that the growth arrest is a stable phenomenon. These growth arresting concentrations were used for drug withdrawal, apoptosis and cell cycle experiments. All the data were verified with the plots. The presented values correspond to median values from two ([…], all compounds) to five (all cell lines, triptolide) biological replicates.
# liposarcoma cell lines [4] = assay: TUNEL apoptosis assay by flow cytometry; assay type: cell-based, human; conditions: growth arresting concentration, 17-72h, majority of cell lines
# Description: Cells were treated with drugs at the concentrations corresponding to previously established growth arresting concentrations and collected between 17 and 72h. Time of collection was individual for every drug/cell line combination; cells were collected after the beginning of complete growth inhibition (based on the growth curves data) but only when first signs of morphological change or cell death were visible (estimated microscopically approximately every 2h). After methanol fixation, cells were barcoded with different combinations of Pacific Blue/Pacific Orange dyes (Thermo Fisher Scientific) for different drug treatments. After mixing, cells were incubated in the TUNEL reaction mix for 1h at 37°C, according to the manufacturer’s instructions (Roche, Germany), stained with Streptavidin-Cy5 conjugated Ab and digested with RNAse. Cells were counter-stained with propidium iodide and analyzed using LSR II Flow Cytometer (BD Biosciences, NJ, USA. The data were processed with FlowJo Version 7.6.5 (Tree Star, Ashland, USA). The gating strategy is presented in Fig 3A. Cy-5 positive cells (as compared to control sample) were calculated as apoptotic. Cell cycles of non-apoptotic cells were analyzed using the built in FlowJo Cell Cycle Analysis module. Three independent biological replicates were done for each cell line/drug combination with exception of FU-DDLS-1 and T1000 –for which we only had two replicates available.
# [5] = system: normal cells (blood, bone marrow from healthy donors, iMSC#3); assay: Toxicity towards normal cells ex vivo, ATP viability 72h; assay type: cell-based, human; conditions: 1 nM to 10 μM
# Description: as §1, with “The raw values of positive (BzCl) and median negative (DMSO) controls on each assay plate were aggregated and used to calculate z’-factors, as a measure of assay performance and data quality, with a z’-factor > 0.5 representing acceptable data.” left out, “Data visualization was done in R using ‘ComplexHeatmaps’ package version 1.20.0 [24]. The same assay was also used when assessing viability of non-tumor cells and tumor explants.” left out
# [6] = system: advanced solid malignancies or lymphoma; conditions: cited from earlier work
smiles,measurement,setting,value
O=C(/C=C/c1cccnc1)NCCCCC1CCN(C(=O)c2ccccc2)CC1 [APO866],efficacy against primary tumor cells from liposarcoma patients,[1],most varied
same,mean steady state serum concentration (Css),[2]; 24 patients with advanced solid malignancies,14 nM
same,concentration arresting the majority of the cell lines,liposarcoma cell lines [3],10 nM
same,apoptosis (increase in % of apoptotic cells),liposarcoma cell lines [4],≤ 5%
CC(C)[C@]12O[C@H]1[C@@H]1O[C@]13[C@]1(O[C@H]1C[C@H]1C4=C(CC[C@@]13C)C(=O)OC4)[C@@H]2O [Triptolide],efficacy against primary tumor cells from liposarcoma patients,[1],most efficient for all the samples
same,Cmax,"[2]; read-out: maximum therapeutic plasma concentration (Cmax), in humans",150 to 400 nM
same,concentration arresting the majority of the cell lines,liposarcoma cell lines [3],10 nM
same,apoptosis (increase in % of apoptotic cells),liposarcoma cell lines [4],above 15%
same,toxicity towards normal cells compared with liposarcoma cell lines,[5],more toxic to bone marrow cells in vitro than to liposarcoma cell lines
COCCn1c2c([n+](Cc3cnccn3)c1C)C(=O)c1ccccc1C2=O [YM155],patients with complete or partial responses,"[6]; phase I, advanced solid malignancies or lymphoma",14%
same,efficacy against primary tumor cells from liposarcoma patients,[1],good response
same,Css,"[2]; phase I, maximum tolerated dose",17 nM
same,Cmax,"[2]; read-out: clinically relevant concentration (Cmax or Css), values show Cmax or Css (italics), patients",17 nM
same,apoptosis (increase in % of apoptotic cells),liposarcoma cell lines [4],above 5%
Cn1cc(CNCC2CCN(c3ncc(C(=O)NO)cn3)CC2)c2ccccc21 [JNJ-26481585],patients with partial response or stable disease,[6]; heavily pretreated patients with solid tumors,10%
same,Cmax,"[2]; dosing schedule recommended for phase II, patients with solid tumors",1.5 to 14 nM
same,apoptosis (increase in % of apoptotic cells),liposarcoma cell lines [4],above 5%
same,toxicity towards normal cells compared with liposarcoma cell lines,[5],more toxic to bone marrow cells in vitro than to liposarcoma cell lines
